ChEMBL document CHEMBL4229455, “Synthesis and anticancer activity of novel bisindolylhydroxymaleimide derivatives with potent GSK-3 kinase inhibition” (Bioorg Med Chem, 2018)

Columns and labels:
Assay type in all cases: functional
SK-OV-3 = experiment: Cytotoxicity against human SKOV3 cells assessed as cell growth at 0.1 uM after 48 hrs by SRB assay relative to control; details: SK-OV-3, 48 h, read-out: Activity
SF-268 = experiment: Cytotoxicity against human SF268 cells after 48 hrs by SRB assay; details: SF-268, 48 h
Hs-578T [1] = experiment: Cytotoxicity against human Hs 578T cells assessed as cell growth at 100 uM after 48 hrs by SRB assay relative to control; details: read-out: Activity
MOLT-4 [2] = experiment: Cytotoxicity against human MOLT4 cells assessed as cell growth at 0.1 uM after 48 hrs by SRB assay relative to control; details: MOLT-4, 48 h, read-out: Activity
NCI/ADR-RES = experiment: Cytotoxicity against human NCI-ADR-RES cells assessed as cell growth at 100 uM after 48 hrs by SRB assay relative to control; details: read-out: Activity
UACC-62 [3] = experiment: Cytotoxicity against human UACC62 cells assessed as cell growth at 0.01 uM after 48 hrs by SRB assay relative to control; details: UACC-62, 48 h, read-out: Activity
SR [4] = experiment: Cytotoxicity against human SR cells assessed as cell growth at 0.1 uM after 48 hrs by SRB assay relative to control; details: read-out: Activity
SF-539 [5] = experiment: Cytotoxicity against human SF539 cells assessed as cell growth at 0.1 uM after 48 hrs by SRB assay relative to control; details: SF-539, 48 h, read-out: Activity
NCI-H23 [6] = experiment: Cytotoxicity against human NCI-H23 cells after 48 hrs by SRB assay; details: NCI-H23, 48 h
SW-620 [7] = experiment: Cytotoxicity against human SW620 cells assessed as cell growth at 0.01 uM after 48 hrs by SRB assay relative to control; details: SW-620, 48 h, read-out: Activity
IGROV-1 = experiment: Cytotoxicity against human IGROV1 cells assessed as cell growth at 0.01 uM after 48 hrs by SRB assay relative to control; details: IGROV-1, 48 h, read-out: Activity
SNB-19 = experiment: Cytotoxicity against human SNB19 cells after 48 hrs by SRB assay; details: SNB-19, 48 h
BT-549 = experiment: Cytotoxicity against human BT549 cells assessed as cell growth at 100 uM after 48 hrs by SRB assay relative to control; details: BT-549, 48 h, read-out: Activity
SF-539 [8] = experiment: Cytotoxicity against human SF539 cells after 48 hrs by SRB assay; details: SF-539, 48 h
SW-620 [9] = experiment: Cytotoxicity against human SW620 cells assessed as cell growth at 100 uM after 48 hrs by SRB assay relative to control; details: SW-620, 48 h, read-out: Activity
OVCAR-5 = experiment: Cytotoxicity against human OVCAR5 cells assessed as cell growth at 0.01 uM after 48 hrs by SRB assay relative to control; details: OVCAR-5, 48 h, read-out: Activity
MOLT-4 [10] = experiment: Cytotoxicity against human MOLT4 cells assessed as cell growth at 100 uM after 48 hrs by SRB assay relative to control; details: MOLT-4, 48 h, read-out: Activity
OVCAR-3 = experiment: Cytotoxicity against human OVCAR3 cells assessed as cell growth at 100 uM after 48 hrs by SRB assay relative to control; details: OVCAR-3, 48 h, read-out: Activity
UO-31 = experiment: Cytotoxicity against human UO31 cells assessed as cell growth at 1 uM after 48 hrs by SRB assay relative to control; details: UO-31, 48 h, read-out: Activity
M14 [11] = experiment: Cytotoxicity against human M14 cells assessed as cell growth at 1 uM after 48 hrs by SRB assay relative to control; details: M14, 48 h, read-out: Activity
SNB-75 = experiment: Cytotoxicity against human SNB75 cells assessed as cell growth at 100 uM after 48 hrs by SRB assay relative to control; details: SNB-75, 48 h, read-out: Activity
HCT-15 = experiment: Cytotoxicity against human HCT15 cells assessed as cell growth at 100 uM after 48 hrs by SRB assay relative to control; details: HCT-15, 48 h, read-out: Activity
HL-60(TB) = experiment: Cytotoxicity against human HL-60(TB) cells assessed as cell growth at 1 uM after 48 hrs by SRB assay relative to control; details: HL-60, 48 h, read-out: Activity
COLO 205 = experiment: Cytotoxicity against human COLO205 cells assessed as cell growth at 0.1 uM after 48 hrs by SRB assay relative to control; details: COLO 205, 48 h, read-out: Activity
UACC-62 [12] = experiment: Cytotoxicity against human UACC62 cells assessed as cell growth at 1 uM after 48 hrs by SRB assay relative to control; details: UACC-62, 48 h, read-out: Activity
NCI-H460 = experiment: Cytotoxicity against human NCI-H460 cells assessed as cell growth at 0.1 uM after 48 hrs by SRB assay relative to control; details: NCI-H460, 48 h, read-out: Activity
Hs-578T [13] = experiment: Cytotoxicity against human Hs 578T cells assessed as cell growth at 1 uM after 48 hrs by SRB assay relative to control; details: read-out: Activity
CCRF-CEM = experiment: Cytotoxicity against human CCRF-CEM cells assessed as cell growth at 0.1 uM after 48 hrs by SRB assay relative to control; details: read-out: Activity
M14 [14] = experiment: Cytotoxicity against human M14 cells assessed as cell growth at 0.1 uM after 48 hrs by SRB assay relative to control; details: M14, 48 h, read-out: Activity
HT-29 = experiment: Cytotoxicity against human HT-29 cells assessed as cell growth at 100 uM after 48 hrs by SRB assay relative to control; details: HT-29, 48 h, read-out: Activity
MDA-MB-435 = experiment: Cytotoxicity against human MDA-MB-435 cells assessed as cell growth at 0.1 uM after 48 hrs by SRB assay relative to control; details: MDA-MB-435, 48 h, read-out: Activity
SR [15] = experiment: Cytotoxicity against human SR cells assessed as cell growth at 1 uM after 48 hrs by SRB assay relative to control; details: read-out: Activity
HCC 2998 = experiment: Cytotoxicity against human HCC2998 cells assessed as cell growth at 1 uM after 48 hrs by SRB assay relative to control; details: HCC 2998, 48 h, read-out: Activity
NCI-H23 [16] = experiment: Cytotoxicity against human NCI-H23 cells assessed as cell growth at 1 uM after 48 hrs by SRB assay relative to control; details: NCI-H23, 48 h, read-out: Activity
Malme-3M = experiment: Cytotoxicity against human MALME-3M cells assessed as cell growth at 100 uM after 48 hrs by SRB assay relative to control; details: read-out: Activity
MOLT-4 [17] = experiment: Cytotoxicity against human MOLT4 cells assessed as cell growth at 0.01 uM after 48 hrs by SRB assay relative to control; details: MOLT-4, 48 h, read-out: Activity
DU-145 = experiment: Cytotoxicity against human DU145 cells assessed as cell growth at 0.1 uM after 48 hrs by SRB assay relative to control; details: DU-145, 48 h, read-out: Activity

`N#CCCCCCn1cc(C2=C(c3cn(CCCCCC#N)c4ccccc34)C(=O)N(O)C2=O)c2ccccc21` gave a growth at 0.1 µM (SK-OV-3) of 88%, a GI50 (SF-268) of 10.1 µM and a TGI (SF-268) greater than 100 µM. The CC50 (SF-268; read-out: LC50 (the source's name)) was greater than 100 µM, the growth at 100 µM (Hs-578T [1]) was 5% and the growth at 0.1 µM (MOLT-4 [2]) was 81%. For the same compound, the growth at 100 µM (NCI/ADR-RES) was 24%, the growth at 0.01 µM (UACC-62 [3]) was 95% and the growth at 0.1 µM (SR [4]) was 100%. It also gave a growth at 0.1 µM (SF-539 [5]) of 90%, a GI50 (NCI-H23 [6]) of 6.09 µM and an LC50 (concentration killing 50% of cells) (NCI-H23 [6]) greater than 100 µM. It also gave a TGI (NCI-H23 [6]) greater than 100 µM, a growth at 0.01 µM (SW-620 [7]) of 100% and a growth at 0.01 µM (IGROV-1) of 104%. It also gave a GI50 (SNB-19) of 4.36 µM, an LC50 (SNB-19) greater than 100 µM and a TGI (SNB-19) greater than 100 µM. The growth at 100 µM (BT-549) was -26%, the GI50 (SF-539 [8]) was 2.82 µM and the LC50 (SF-539 [8]) was greater than 100 µM. For the same compound, the TGI (SF-539 [8]) was 9.42 µM, the growth at 100 µM (SW-620 [9]) was 7% and the growth at 0.01 µM (OVCAR-5) was 99%. It also gave a growth at 100 µM (MOLT-4 [10]) of 2%, a growth at 100 µM (OVCAR-3) of -34% and a growth at 1 µM (UO-31) of 59%. For the same compound, the growth at 1 µM (M14 [11]) was 89%, the growth at 100 µM (SNB-75) was -32% and the growth at 100 µM (HCT-15) was 1%. It also gave a growth at 1 µM (HL-60(TB)) of 100%, a growth at 0.1 µM (COLO 205) of 93% and a growth at 1 µM (UACC-62 [12]) of 87%. It also gave a growth at 0.1 µM (NCI-H460) of 104%, a growth at 1 µM (Hs-578T [13]) of 88% and a growth at 0.1 µM (CCRF-CEM) of 85%. The growth at 0.1 µM (M14 [14]) was 85%, the growth at 100 µM (HT-29) was -33% and the growth at 0.1 µM (MDA-MB-435) was 95%. For the same compound, the growth at 1 µM (SR [15]) was 114%, the growth at 1 µM (HCC 2998) was 108% and the growth at 1 µM (NCI-H23 [16]) was 94%. It also gave a growth at 100 µM (Malme-3M) of -14%, a growth at 0.01 µM (MOLT-4 [17]) of 87% and a growth at 0.1 µM (DU-145) of 103%.
